Experimental data as given in the supplement of paper PMC13380429.

Columns and labels:
[1] = tested on: A549-ACE2 infected with SARS-CoV-2; test: SARS-CoV-2 infection rate relative to DMSO; higher = more infection; details: 24 h
[2] = tested on: A549-ACE2; test: drug-induced phospholipidosis relative to tamoxifen; higher = more phospholipidosis
[3] = tested on: Vero E6; test: relative viability EC50 (midpoint between 100% and the lowest measured viability); higher = less toxic; details: 72 h
[4] = tested on: Calu-3; test: as above; details: 72 h
[5] = tested on: A549-ACE2 infected with SARS-CoV-2; test: morphology score (similarity to uninfected cells); higher = more like uninfected cells; details: 24 h
[6] = tested on: A549-ACE2 infected with SARS-CoV-2; test: cell count relative to DMSO; higher = less toxic; details: 24 h
[7] = tested on: Vero E6; test: drug sensitivity score (DSS) for viability; higher = more toxic; extreme values may be limits of the assay; details: 72 h
[8] = tested on: U2OS; test: as above; details: 72 h
[9] = tested on: HepG2; test: as above; details: 72 h
[10] = tested on: Calu-3; test: as above; details: 72 h
[11] = tested on: Caco-2; test: as above; details: 72 h
[12] = tested on: A549-ACE2; test: phospholipidosis EC50; higher = less potent phospholipidosis inducer
[13] = tested on: Vero E6; test: cell viability relative to DMSO; higher = less toxic; details: 72 h
[14] = tested on: U2OS; test: as above; details: 72 h
[15] = tested on: HepG2; test: as above; details: 72 h
[16] = tested on: Calu-3; test: as above; details: 72 h
[17] = tested on: Caco-2; test: as above; details: 72 h
[18] = tested on: U2OS; test: relative viability EC50 (midpoint between 100% and the lowest measured viability); higher = less toxic; details: 72 h
[19] = tested on: HepG2; test: as above; details: 72 h
[20] = tested on: Caco-2; test: as above; details: 72 h

O=C(NCCN1CCC2(CC1)C(=O)NCN2c1cccc(F)c1)c1ccc2ccccc2c1
Details	SARS-CoV-2 infection rate [%]	cell count [%]	cell viability [%]	morphology score	phospholipidosis EC50 [nM]
[1], 0.3 µM	107	–	–	–	–
[1], 3 µM	35	–	–	–	–
[1], 10 µM	20	–	–	–	–
[1], 30 µM	48	–	–	–	–
[5], 0.3 µM	–	–	–	-0.21	–
[5], 3 µM	–	–	–	0.7	–
[5], 10 µM	–	–	–	0.39	–
[5], 30 µM	–	–	–	0.06	–
[6], 0.3 µM	–	96	–	–	–
[6], 3 µM	–	115	–	–	–
[6], 10 µM	–	93	–	–	–
[6], 30 µM	–	3	–	–	–
[12], 24 h	–	–	–	–	2210
[12], 48 h	–	–	–	–	3210
[12], 72 h	–	–	–	–	4550
[13], 1 nM	–	–	103	–	–
[13], 10 nM	–	–	95.6	–	–
[13], 100 nM	–	–	97.4	–	–
[13], 1000 nM	–	–	96.4	–	–
[13], 10000 nM	–	–	84.8	–	–
[14], 1 nM	–	–	101	–	–
[14], 10 nM	–	–	104	–	–
[14], 100 nM	–	–	97.7	–	–
[14], 1000 nM	–	–	100	–	–
[14], 10000 nM	–	–	71	–	–
[15], 1 nM	–	–	104	–	–
[15], 10 nM	–	–	106	–	–
[15], 100 nM	–	–	102	–	–
[15], 1000 nM	–	–	85.9	–	–
[15], 10000 nM	–	–	54.5	–	–
[16], 1 nM	–	–	100	–	–
[16], 10 nM	–	–	102	–	–
[16], 100 nM	–	–	94.8	–	–
[16], 1000 nM	–	–	95	–	–
[16], 10000 nM	–	–	11.2	–	–
[17], 1 nM	–	–	102	–	–
[17], 10 nM	–	–	93.5	–	–
[17], 100 nM	–	–	95.2	–	–
[17], 1000 nM	–	–	90.8	–	–
[17], 10000 nM	–	–	52.4	–	–

drug-induced phospholipidosis [%], [2]
Details	0.3 µM	0.833333 µM	3.33333 µM	6.66667 µM	10 µM	30 µM
24 h	1.19	9.12	93.1	112	127	127
48 h	2.88	7.95	76.2	107	140	134
72 h	2.25	6.48	52.3	100	120	–

Details	drug sensitivity score	relative viability EC50 [nM]
[3]	–	> 10000
[4]	–	2720
[7]	0.5	–
[8]	1.2	–
[9]	4.4	–
[10]	5.7	–
[11]	4	–

Nc1ncnc2c1c(-c1cccc(OCc3ccccc3)c1)cn2C1CC(CN2CCCC2)C1 (stereo in doubt) [NVP-ADW742]
Details	SARS-CoV-2 infection rate [%]	cell count [%]	cell viability [%]	morphology score	phospholipidosis EC50 [nM]
[1], 0.1 µM	98	–	–	–	–
[1], 0.3 µM	94	–	–	–	–
[1], 1 µM	75	–	–	–	–
[1], 3 µM	30	–	–	–	–
[5], 0.1 µM	–	–	–	0.14	–
[5], 0.3 µM	–	–	–	0.2	–
[5], 1 µM	–	–	–	0.46	–
[5], 3 µM	–	–	–	0.75	–
[6], 0.1 µM	–	104	–	–	–
[6], 0.3 µM	–	93	–	–	–
[6], 1 µM	–	82	–	–	–
[6], 3 µM	–	101	–	–	–
[12], 24 h	–	–	–	–	5360
[12], 72 h	–	–	–	–	3260
[13], 1 nM	–	–	99.9	–	–
[13], 10 nM	–	–	95.6	–	–
[13], 100 nM	–	–	97.6	–	–
[13], 1000 nM	–	–	98.1	–	–
[13], 10000 nM	–	–	58.2	–	–
[14], 1 nM	–	–	99.1	–	–
[14], 10 nM	–	–	98	–	–
[14], 100 nM	–	–	99	–	–
[14], 1000 nM	–	–	88.9	–	–
[14], 10000 nM	–	–	43.7	–	–
[15], 1 nM	–	–	89.3	–	–
[15], 10 nM	–	–	97.4	–	–
[15], 100 nM	–	–	101	–	–
[15], 1000 nM	–	–	69.9	–	–
[15], 10000 nM	–	–	23.2	–	–
[16], 1 nM	–	–	99.2	–	–
[16], 10 nM	–	–	93.1	–	–
[16], 100 nM	–	–	107	–	–
[16], 1000 nM	–	–	102	–	–
[16], 10000 nM	–	–	44.2	–	–
[17], 1 nM	–	–	98.9	–	–
[17], 10 nM	–	–	96.1	–	–
[17], 100 nM	–	–	98.4	–	–
[17], 1000 nM	–	–	74.6	–	–
[17], 10000 nM	–	–	34.1	–	–

drug-induced phospholipidosis [%], [2]
Details	0.3 µM	0.833333 µM	3.33333 µM	6.66667 µM	10 µM	30 µM
24 h	8.61	13.3	31.4	113	145	158
48 h	8.35	9.24	33.7	54.9	–	–
72 h	7.79	5.46	31.5	52.2	–	–

Details	drug sensitivity score	relative viability EC50 [nM]
[4]	–	3320
[7]	2.4	–
[8]	4.9	–
[9]	8.3	–
[10]	2.9	–
[11]	7	–
[18]	–	1750
[19]	–	1190
[20]	–	1230

CN1CCN(S(=O)(=O)c2ccc(-c3cnc(N)c(C(=O)Nc4cccnc4)n3)cc2)CC1 [AZD2858]
Details	SARS-CoV-2 infection rate, [1] [%]	cell count, [6] [%]	cell viability, [13] [%]	cell viability, [14] [%]	cell viability, [15] [%]	cell viability, [16] [%]	cell viability, [17] [%]	morphology score, [5]
1 nM	–	–	98.5	92.4	104	98.2	96.7	–
10 nM	–	–	93.1	99.5	104	102	96.7	–
0.1 µM	103	100	–	–	–	–	–	-0.23
100 nM	–	–	100	96.6	101	99.4	102	–
0.3 µM	100	96	–	–	–	–	–	-0.27
1 µM	86	107	–	–	–	–	–	-0.14
1000 nM	–	–	102	100	97.3	114	108	–
3 µM	95	97	–	–	–	–	–	-0.15
10000 nM	–	–	78.8	73.8	70.4	85.7	82.3	–

drug-induced phospholipidosis [%], [2]
Details	0.3 µM	0.833333 µM	3.33333 µM	6.66667 µM	10 µM	30 µM
24 h	-4.95	-12.2	-21.2	-22.8	-21.3	-18.1
48 h	1.83	-4.03	-14.2	–	–	–
72 h	1.77	-0.315	-6.78	–	–	–

Details	drug sensitivity score	relative viability EC50 [nM]
[3]	–	> 10000
[4]	–	> 10000
[7]	0.6	–
[8]	1	–
[9]	1.7	–
[10]	0	–
[11]	0.2	–
[20]	–	> 10000

O=C(c1ccc(Nc2nccc(-c3cc4ccccc4s3)n2)cc1)N1CCC(N2CCCC2)CC1 [IKK-16]
Details	SARS-CoV-2 infection rate [%]	cell count [%]	cell viability [%]	morphology score	phospholipidosis EC50 [nM]
[1], 0.1 µM	101	–	–	–	–
[1], 0.3 µM	104	–	–	–	–
[1], 1 µM	62	–	–	–	–
[1], 3 µM	19	–	–	–	–
[5], 0.1 µM	–	–	–	-0.12	–
[5], 0.3 µM	–	–	–	-0.2	–
[5], 1 µM	–	–	–	0.57	–
[5], 3 µM	–	–	–	0.49	–
[6], 0.1 µM	–	102	–	–	–
[6], 0.3 µM	–	93	–	–	–
[6], 1 µM	–	111	–	–	–
[6], 3 µM	–	109	–	–	–
[12], 24 h	–	–	–	–	1050
[12], 48 h	–	–	–	–	1530
[12], 72 h	–	–	–	–	1100
[13], 1 nM	–	–	97.4	–	–
[13], 10 nM	–	–	99.5	–	–
[13], 100 nM	–	–	99.5	–	–
[13], 1000 nM	–	–	97.6	–	–
[13], 10000 nM	–	–	-0.2	–	–
[14], 1 nM	–	–	97.4	–	–
[14], 10 nM	–	–	95.5	–	–
[14], 100 nM	–	–	97.6	–	–
[14], 1000 nM	–	–	91.7	–	–
[14], 10000 nM	–	–	0.8	–	–
[15], 1 nM	–	–	95.9	–	–
[15], 10 nM	–	–	108	–	–
[15], 100 nM	–	–	91.6	–	–
[15], 1000 nM	–	–	86.9	–	–
[15], 10000 nM	–	–	-0.2	–	–
[17], 1 nM	–	–	97.6	–	–
[17], 10 nM	–	–	102	–	–
[17], 100 nM	–	–	98.9	–	–
[17], 1000 nM	–	–	79.8	–	–
[17], 10000 nM	–	–	9.4	–	–

drug-induced phospholipidosis [%], [2]
Details	0.3 µM	0.833333 µM	3.33333 µM	6.66667 µM	10 µM	30 µM
24 h	-2.91	8.17	163	140	179	55.6
48 h	-0.02	5.69	114	107	125	–
72 h	0.998	5.79	108	91.2	–	–

Details	drug sensitivity score	relative viability EC50 [nM]
[3]	–	2980
[7]	5.9	–
[8]	6.8	–
[9]	7.7	–
[11]	8.2	–
[18]	–	2480
[19]	–	2100
[20]	–	1640
